Source: patent US8574563B2 (Bristol-Myers Squibb Company, priority 2006, dated 2013)

These compounds were tested on HCV 1b-377-neo replicon cells (assay: HCV replicon assay, HCV 1b-377-neo replicon cells (1b FRET)). Conditions: HCV 1b-377-neo replicon cells; HCV 1b genotype; read-out: EC50 range against HCV 1b (Table 2, Range).
Assay type: cell-based, Hepatitis C virus genotype 1b
How it was run: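 Compounds were tested in genotype 1b subgenomic replicon cells carrying a neomycin marker, alongside a matched replicon line with an NS5A Y2065H substitution that confers resistance to a reference NS5A inhibitor.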

Structure (SMILES) | EC50 [nM]
COC(=O)N[C@@H](C(=O)N1CCC[C@H]1c1ncc(-c2ccc(-c3ccc(-c4cnc([C@@H]5CCCN5C(=O)Cc5ccccc5CN5CCCCC5)[nH]4)cc3)cc2)[nH]1)c1ccccc1 [Example 84-85, methyl ((1R)-2-oxo-1-phenyl-2-((2S)-2-(5-(4′-(2-((2S)-1-((2-(1-piperidinylmethyl)phenyl)acetyl)-2-pyrrolidinyl)-1H-imidazol-5-yl)-4-biphenylyl)-1H-imidazol-2-yl)-1-pyrrolidinyl)ethyl)carbamate] | 0.001 to 0.999

Same assay, conditions: Hepatitis C virus, HCV 1b-377-neo replicon cells; HCV 1b genotype; read-out: EC50 range against HCV 1b (Table 2, Range)

Structure (SMILES) | EC50 [nM]
COC(=O)N[C@H](C(=O)N1CCC[C@H]1c1nc(C)c(-c2ccc(-c3ccc(-c4nc([C@@H]5CCCN5C(=O)[C@@H](NC(=O)OC)[C@@H](C)OC)[nH]c4C)cc3)cc2)[nH]1)C(C)OC (stereo in doubt) [Example E5m, methyl ((1S,2R)-2-methoxy-1-(((2S)-2-(4-(4′-(2-((2S)-1-(N-(methoxycarbonyl)-O-methyl-L-threonyl)-2-pyrrolidinyl)-5-methyl-1H-imidazol-4-yl)-4-biphenylyl)-5-methyl-1H-imidazol-2-yl)-1-pyrrolidinyl)carbonyl)propyl)carbamate] | 0.001 to 0.999
CCN(C)[C@@H](C(=O)N1CCC[C@H]1c1ncc(-c2ccc(-c3ccc(-c4cnc([C@@H]5CCCN5C(=O)[C@@H]5CCCO5)[nH]4)cc3)cc2)[nH]1)c1ccccc1 [Example 107, (1R)-N-ethyl-N-methyl-2-oxo-1-phenyl-2-((2S)-2-(5-(4′-(2-((2S)-1-((2S)-tetrahydro-2-furanylcarbonyl)-2-pyrrolidinyl)-1H-imidazol-5-yl)-4-biphenylyl)-1H-imidazol-2-yl)-1-pyrrolidinyl)ethanamine] | 0.001 to 0.999
CCCc1[nH]c([C@@H]2CCCN2C(=O)[C@@H](NC(=O)OC)C(C)C)nc1-c1ccc(-c2ccc(-c3cnc([C@@H]4CCCN4C(=O)[C@@H](NC(=O)OC)C(C)C)[nH]3)cc2)cc1 [Example J14c.2, methyl ((1S)-1-(((2S)-2-(4-(4′-(2-((2S)-1-((2S)-2-((methoxycarbonyl)amino)-3-methylbutanoyl)-2-pyrrolidinyl)-1H-imidazol-4-yl)-4-biphenylyl)-5-propyl-1H-imidazol-2-yl)-1-pyrrolidinyl)carbonyl)-2-methylpropyl)carbamate] | 0.001 to 0.999
CCN(CC)[C@@H](C(=O)N1C[C@H](F)C[C@H]1c1ncc(-c2ccc(-c3ccc(-c4cnc([C@@H]5C[C@@H](F)CN5C(=O)[C@@H](c5ccccc5)N(CC)CC)[nH]4)cc3)cc2)[nH]1)c1ccccc1 [JG-17, (1R,1′R)-2,2′-(4,4′-biphenyldiylbis(1H-imidazole-5,2-diyl((2S,4R)-4-fluoro-2,1-pyrrolidinediyl)))bis(N,N-diethyl-2-oxo-1-phenylethanamine)] | 0.001 to 0.999
COC(=O)N[C@@H](C(=O)N1CCC[C@H]1c1ncc(-c2ccc(-c3ccc(-c4[nH]c([C@@H]5CCCN5C(=O)[C@H](NC(=O)OC)c5ccccc5)nc4C(=O)OC)cc3)cc2)[nH]1)c1ccccc1 [Example J16, methyl 2-((2S)-l-((2R)-2-((methoxycarbonyl)amino)-2-phenylacetyl)-2-pyrrolidinyl)-5-(4′-(2-((2S)-1-((2R)-2-((methoxycarbonyl)amino)-2-phenylacetyl)-2-pyrrolidinyl)-1H-imidazol-5-yl)-4-biphenylyl)-1H-imidazole-4-carboxylate] | 0.001 to 0.999
CC(=O)N1[C@@H](C)CC[C@H]1c1ncc(-c2ccc(-c3ccc(-c4cnc([C@@H]5CC[C@H](C)N5C(C)=O)[nH]4)cc3)cc2)[nH]1 (stereo in doubt) [Example M162, 2-((2S,5S)-1-acetyl-5-methyl-2-pyrrolidinyl)-4-(4′-(2-((2S,5S)-1-acetyl-5-methyl-2-pyrrolidinyl)-1H-imidazol-5-yl)-4-biphenylyl)-1H-imidazole] | 1 to 99
CN(C)[C@@H](C(=O)N1CCC[C@H]1c1ncc(-c2ccc(-c3ccc(-c4cnc([C@@H]5CCCN5C(=O)[C@@H](c5ccccc5)N5CCCCC5)[nH]4)cc3)cc2)[nH]1)c1ccccc1F [Example 28-5, (1R)-1-(2-fluorophenyl)-N,N-dimethyl-2-oxo-2-((2S)-2-(5-(4′-(2-((2S)-1-((2R)-2-phenyl-2-(1-piperidinyl)acetyl)-2-pyrrolidinyl)-1H-imidazol-5-yl)-4-biphenylyl)-1H-imidazol-2-yl)-1-pyrrolidinyl)ethanamine] | 0.001 to 0.999
CCC(=O)N1CCC[C@H]1c1ncc(-c2ccc(-c3ccc(-c4cnc([C@@H]5CCCN5C(=O)[C@H](NC(=O)OC)c5ccccc5)[nH]4)cc3)cc2)[nH]1 [Example 32, methyl ((1R)-2-oxo-1-phenyl-2-((2S)-2-(5-(4′-(2-((2S)-1-propionyl-2-pyrrolidinyl)-1H-imidazol-5-yl)-4-biphenylyl)-1H-imidazol-2-yl)-1-pyrrolidinyl)ethyl)carbamate] | 1 to 99
CN(C)[C@@H](C(=O)N1CCC[C@H]1c1ncc(-c2ccc(-c3ccc(-c4cnc([C@@H]5CCCN5C(=O)c5cscn5)[nH]4)cc3)cc2)[nH]1)c1ccccc1 [Example 94-42, (1R)-N,N-dimethyl-2-oxo-1-phenyl-2-((2S)-2-(5-(4′-(2-((2S)-1-(1,3-thiazol-4-ylcarbonyl)-2-pyrrolidinyl)-1H-imidazol-5-yl)-4-biphenylyl)-1H-imidazol-2-yl)-1-pyrrolidinyl)ethanamine] | 0.001 to 0.999
CCN(CC)[C@@H](C(=O)N1CCC[C@H]1c1ncc(-c2ccc(-c3ccc(-c4cnc([C@@H]5CCCN5C(=O)[C@H](Cc5cccnc5)NC(=O)OC)[nH]4)cc3)cc2)[nH]1)c1ccccc1 [cj-84, methyl ((1S)-2-((2S)-2-(5-(4′-(2-((2S)-1-((2R)-2-(diethylamino)-2-phenylacetyl)-2-pyrrolidinyl)-1H-imidazol-5-yl)-4-biphenylyl)-1H-imidazol-2-yl)-1-pyrrolidinyl)-2-oxo-1-(3-pyridinylmethyl)ethyl)carbamate] | 0.001 to 0.999
COC(=O)N[C@@H](C)C(=O)N1CCC[C@H]1c1ncc(-c2ccc(-c3ccc(-c4cnc([C@@H]5CCCN5C(=O)[C@H](Cc5ccc(OCc6ccccc6)cc5)NC(=O)OC)[nH]4)cc3)cc2)[nH]1 [cj-107, methyl ((1S)-1-(4-(benzyloxy)benzyl)-2-((2S)-2-(5-(4′-(2-((2S)-1-(N-(methoxycarbonyl)-L-alanyl)-2-pyrrolidinyl)-1H-imidazol-5-yl)-4-biphenylyl)-1H-imidazol-2-yl)-1-pyrrolidinyl)-2-oxoethyl)carbamate] | 0.001 to 0.999
COC(=O)N[C@@H](CC(=O)O)C(=O)N1CCC[C@H]1c1ncc(-c2ccc(-c3ccc(-c4cnc([C@@H]5CCCN5C(=O)[C@@H](NC(=O)OC)C(C)C)[nH]4)cc3)cc2)[nH]1 [Example M111, (3S)-3-((methoxycarbonyl)amino)-4-((2S)-2-(5-(4′-(2-((2S)-1-(N-(methoxycarbonyl)-L-valyl)-2-pyrrolidinyl)-1H-imidazol-5-yl)-4-biphenylyl)-1H-imidazol-2-yl)-1-pyrrolidinyl)-4-oxobutanoic acid] | 1000 to 10000
COc1ccccc1OCC(=O)N1CCC[C@H]1c1ncc(-c2ccc(-c3ccc(-c4cnc([C@@H]5CCCN5C(=O)[C@@H](c5ccccc5)N(C)C)[nH]4)cc3)cc2)[nH]1 [Example 94-24, (1R)-2-((2S)-2-(5-(4′-(2-((2S)-1-((2-methoxyphenoxy)acetyl)-2-pyrrolidinyl)-1H-imidazol-5-yl)-4-biphenylyl)-1H-imidazol-2-yl)-1-pyrrolidinyl)-N,N-dimethyl-2-oxo-1-phenylethanamine] | 0.001 to 0.999
COC(=O)N[C@H](CC(=O)N1CCC[C@H]1c1ncc(-c2ccc(-c3ccc(-c4cnc([C@@H]5CCCN5C(=O)C[C@@H](NC(=O)OC)C(C)C)[nH]4)cc3)cc2)[nH]1)C(C)C [cj-127, dimethyl (4,4′-biphenyldiylbis(1H-imidazole-5,2-diyl(2S)-2,1-pyrrolidinediyl((3R)-4-methyl-1-oxo-1,3-pentanediyl)))biscarbamate] | 1 to 99
COC(=O)N[C@@H](C(=O)N1CCC[C@H]1c1ncc(-c2ccc(-c3ccc(-c4cnc([C@@H]5CCCN5C(=O)[C@H]5CCCN5C)[nH]4)cc3)cc2)[nH]1)c1ccccc1 [Example 51, methyl ((1R)-2-((2S)-2-(5-(4′-(2-((2S)-1-(1-methyl-D-prolyl)-2-pyrrolidinyl)-1H-imidazol-5-yl)-4-biphenylyl)-1H-imidazol-2-yl)-1-pyrrolidinyl)-2-oxo-1-phenylethyl)carbamate] | 0.001 to 0.999
COC(=O)N[C@@H](C(=O)N1CCC[C@H]1c1ncc(-c2cnc(-c3ncc(-c4cnc([C@@H]5CCCN5C(=O)[C@H](NC(=O)OC)c5ccccc5)[nH]4)cn3)nc2)[nH]1)c1ccccc1 [Example 153c-4, dimethyl (2,2′-bipyrimidine-5,5′-diylbis(1H-imidazole-5,2-diyl(2S)-2,1-pyrrolidinediyl((1R)-2-oxo-1-phenyl-2,1-ethanediyl)))biscarbamate] | 1000 to 10000
COC(=O)N[C@@H](C)C(=O)N1CCC[C@H]1c1ncc(-c2ccc(-c3ccc(-c4cnc([C@@H]5CCCN5C(=O)[C@H](NC(=O)OC)c5ccccc5)[nH]4)cc3)cc2)[nH]1 [Example 75, methyl ((1R)-2-((2S)-2-(5-(4′-(2-((2S)-1-(N-(methoxycarbonyl)-L-alanyl)-2-pyrrolidinyl)-1H-imidazol-5-yl)-4-biphenylyl)-1H-imidazol-2-yl)-1-pyrrolidinyl)-2-oxo-1-phenylethyl)carbamate] | 0.001 to 0.999
CCN(CC)[C@@H](C)C(=O)N1CCC[C@H]1c1ncc(-c2ccc(-c3ccc(-c4cnc([C@@H]5CCCN5C(=O)[C@@H](c5ccccc5)N(CC)CC)[nH]4)cc3)cc2)[nH]1 [Example M36, (2S)-1-((2S)-2-(5-(4′-(2-((2S)-1-((2R)-2-(diethylamino)-2-phenylacetyl)-2-pyrrolidinyl)-1H-imidazol-5-yl)-4-biphenylyl)-1H-imidazol-2-yl)-1-pyrrolidinyl)-N,N-diethyl-1-oxo-2-propanamine] | 1 to 99
